From patent US8192962B2, “Processes for detecting toxic substances” (Daikin Industries, Ltd., priority 2001, dated 2012)

Test system: Energy system protein genes
Assay: DNA chip mRNA expression in yeast, energy system protein genes (Table 4)
Format: cell-based, Saccharomyces cerevisiae S288C
Experimental: Yeast (Saccharomyces cerevisiae S288C (α SUC2mal mel gap2 CUP1)) were incubated at 25° C. on YPD medium (yeast extract 1%, polypepton 2%, glucose 2%). One of toxic chemical substances was added to the cells at logarithmic growth phase, and the cells were further incubated for two hours. Cells were cultured without any chemical substance in the same condition, and were used as control. Concentrations of the chemical substances were defined to inhibit the growth of the yeast but not lead to death.
After completion of the incubation, the culture was centrifuged to collect the cells. To the cells, sodium acetate buffer (50 mM sodium acetate, 10 mM EDTA, 1% SDS) was added, and the mixture was shaken at 65° C. for five minutes, followed by returning to room temperature, and obtaining the supernatant, of which the procedures were repeated two times. To the supernatant, ½ amount of a solution of phenol/chloroform was added, and the mixture was centrifuged to give a supernatant, which was added with an equal amount of chloroform, and the mixture was centrifuged to give a supernatant. To the supernatant, an equal amount of isopropanol containing 0.3 M sodium acetate was added, and the mixture was allowed to stand at room temperature for 30 minutes, after which the mixture was centrifuged to give a sediment of the whole RNAs. Seventy % ethanol was added to the sediment, and the mixture was again centrifuged to give a sediment, which was then dried and dissolved in water. mRNA was isolated from the whole RNAs as followings. In view of the fact that a poly A chain is attached to the 3′ terminus of mRNA, a polynucleotide having a poly T structure which was immobilized on the surface of latex beads was used to trap the mRNA, and then the mRNA was washed and eluted with spine column (Oligotex-dT30<Super>mRNA Purification Kit, Takara). Reverse transcription of the mRNA was conducted with a reverse transcriptase (Super Script II Reverse Transcriptase; catalogue No. 18064-014, GibcoBRL) using fluorescence-labeled nucleotides to give cDNAs that were introduced with Cy3-dUTP or Cy5-dUTP during the reverse transcription.
The labeled cDNAs were dissolved in TE buffer (10mM Tris-HCl/1 mM EDTA, pH8.0), and the solution was dropped on the DNA chip containing the whole genes of yeast (DNA Chip Research Inc. Japan) so that the cDNAs were hybridized on the DNA chip at 65° C. for over 12 hours. The fluoresces intensity of the DNA chip was read with a scanner, and the ratio relative to the fluorescence intensity resulting from the absence of chemical substance was estimated as the following, which is shown in Tables 1 to 9: […]

C=CC=O [(14), acrolein]
The level of expressed mRNA in the presence of chemical substance/The level of expressed mRNA in the absence of chemical substance (yeast gene YJR048W): 2.5
The level of expressed mRNA in the presence of chemical substance/The level of expressed mRNA in the absence of chemical substance (yeast gene YJR121W, cells incubated two hours with the chemical substance): 0.7
The level of expressed mRNA in the presence of chemical substance/The level of expressed mRNA in the absence of chemical substance (yeast gene YJR155W): 9.4
The level of expressed mRNA in the presence of chemical substance/The level of expressed mRNA in the absence of chemical substance (yeast gene YKL016C, cells incubated two hours with the chemical substance): 1.6
The level of expressed mRNA in the presence of chemical substance/The level of expressed mRNA in the absence of chemical substance (yeast gene YKL060C, cells incubated two hours with the chemical substance): 0.8
The level of expressed mRNA in the presence of chemical substance/The level of expressed mRNA in the absence of chemical substance (yeast gene YKL141W, cells incubated two hours with the chemical substance): 1.4
The level of expressed mRNA in the presence of chemical substance/The level of expressed mRNA in the absence of chemical substance (yeast gene YKL148C, cells incubated two hours with the chemical substance): 0.8
The level of expressed mRNA in the presence of chemical substance/The level of expressed mRNA in the absence of chemical substance (yeast gene YKL150W): 1.4
The level of expressed mRNA in the presence of chemical substance/The level of expressed mRNA in the absence of chemical substance (yeast gene YKR009C, cells incubated two hours with the chemical substance): 1.0
The level of expressed mRNA in the presence of chemical substance/The level of expressed mRNA in the absence of chemical substance (yeast gene YKR058W, cells incubated two hours with the chemical substance, 25° C., YPD medium): 1.3
The level of expressed mRNA in the presence of chemical substance/The level of expressed mRNA in the absence of chemical substance (yeast gene YKR097W): 2.1
The level of expressed mRNA in the presence of chemical substance/The level of expressed mRNA in the absence of chemical substance (yeast gene YLL041C, cells incubated two hours with the chemical substance): 1.2
The level of expressed mRNA in the presence of chemical substance/The level of expressed mRNA in the absence of chemical substance (yeast gene YLR038C, cells incubated two hours with the chemical substance): 1.6
The level of expressed mRNA in the presence of chemical substance/The level of expressed mRNA in the absence of chemical substance (yeast gene YLR044C, cells incubated two hours with the chemical substance): 0.5
The level of expressed mRNA in the presence of chemical substance/The level of expressed mRNA in the absence of chemical substance (yeast gene YLR134W, cells incubated two hours with the chemical substance): 0.6
The level of expressed mRNA in the presence of chemical substance/The level of expressed mRNA in the absence of chemical substance (yeast gene YLR258W, cells incubated two hours with the chemical substance): 1.2
The level of expressed mRNA in the presence of chemical substance/The level of expressed mRNA in the absence of chemical substance (yeast gene YLR284C, cells incubated two hours with the chemical substance): 1.3
The level of expressed mRNA in the presence of chemical substance/The level of expressed mRNA in the absence of chemical substance (yeast gene YLR295C, cells incubated two hours with the chemical substance, 25° C., YPD medium): 1.2
The level of expressed mRNA in the presence of chemical substance/The level of expressed mRNA in the absence of chemical substance (yeast gene YLR304C, cells incubated two hours with the chemical substance): 0.7
The level of expressed mRNA in the presence of chemical substance/The level of expressed mRNA in the absence of chemical substance (yeast gene YLR345W): 1.5
The level of expressed mRNA in the presence of chemical substance/The level of expressed mRNA in the absence of chemical substance (yeast gene YLR354C, cells incubated two hours with the chemical substance): 0.9
The level of expressed mRNA in the presence of chemical substance/The level of expressed mRNA in the absence of chemical substance (yeast gene YLR377C, cells incubated two hours with the chemical substance): 2.9
The level of expressed mRNA in the presence of chemical substance/The level of expressed mRNA in the absence of chemical substance (yeast gene YLR395C, cells incubated two hours with the chemical substance): 1.7
The level of expressed mRNA in the presence of chemical substance/The level of expressed mRNA in the absence of chemical substance (yeast gene YML087C): 2.1
The level of expressed mRNA in the presence of chemical substance/The level of expressed mRNA in the absence of chemical substance (yeast gene YML120C, cells incubated two hours with the chemical substance): 0.8
The level of expressed mRNA in the presence of chemical substance/The level of expressed mRNA in the absence of chemical substance (yeast gene YML129C, cells incubated two hours with the chemical substance): 1.4
The level of expressed mRNA in the presence of chemical substance/The level of expressed mRNA in the absence of chemical substance (yeast gene YMR073C, cells incubated two hours with the chemical substance): 2.0
The level of expressed mRNA in the presence of chemical substance/The level of expressed mRNA in the absence of chemical substance (yeast gene YMR118C): 0.9
The level of expressed mRNA in the presence of chemical substance/The level of expressed mRNA in the absence of chemical substance (yeast gene YMR205C, cells incubated two hours with the chemical substance): 0.5
The level of expressed mRNA in the presence of chemical substance/The level of expressed mRNA in the absence of chemical substance (yeast gene YMR261C, cells incubated two hours with the chemical substance): 0.6
The level of expressed mRNA in the presence of chemical substance/The level of expressed mRNA in the absence of chemical substance (yeast gene YMR267W, cells incubated two hours with the chemical substance, 25° C., YPD medium): 1.0
The level of expressed mRNA in the presence of chemical substance/The level of expressed mRNA in the absence of chemical substance (yeast gene YMR323W, cells incubated two hours with the chemical substance): 1.2
The level of expressed mRNA in the presence of chemical substance/The level of expressed mRNA in the absence of chemical substance (yeast gene YNL071W): 0.8
The level of expressed mRNA in the presence of chemical substance/The level of expressed mRNA in the absence of chemical substance (yeast gene YNL202W, cells incubated two hours with the chemical substance): 1.0
The level of expressed mRNA in the presence of chemical substance/The level of expressed mRNA in the absence of chemical substance (yeast gene YNL241C): 1.1
The level of expressed mRNA in the presence of chemical substance/The level of expressed mRNA in the absence of chemical substance (yeast gene YNL331C): 7.5
The level of expressed mRNA in the presence of chemical substance/The level of expressed mRNA in the absence of chemical substance (yeast gene YOL086C, cells incubated two hours with the chemical substance): 0.6
The level of expressed mRNA in the presence of chemical substance/The level of expressed mRNA in the absence of chemical substance (yeast gene YOL165C): 9.1
The level of expressed mRNA in the presence of chemical substance/The level of expressed mRNA in the absence of chemical substance (yeast gene YOR142W, cells incubated two hours with the chemical substance): 0.8
The level of expressed mRNA in the presence of chemical substance/The level of expressed mRNA in the absence of chemical substance (yeast gene YOR178C, cells incubated two hours with the chemical substance): 1.0
The level of expressed mRNA in the presence of chemical substance/The level of expressed mRNA in the absence of chemical substance (yeast gene YOR388C, cells incubated two hours with the chemical substance): 1.3
The level of expressed mRNA in the presence of chemical substance/The level of expressed mRNA in the absence of chemical substance (yeast gene YPL031C, cells incubated two hours with the chemical substance): 0.9
The level of expressed mRNA in the presence of chemical substance/The level of expressed mRNA in the absence of chemical substance (yeast gene YPL061W, cells incubated two hours with the chemical substance): 0.6
The level of expressed mRNA in the presence of chemical substance/The level of expressed mRNA in the absence of chemical substance (yeast gene YPL088W): 1.6
The level of expressed mRNA in the presence of chemical substance/The level of expressed mRNA in the absence of chemical substance (yeast gene YPL171C): 9.3
The level of expressed mRNA in the presence of chemical substance/The level of expressed mRNA in the absence of chemical substance (yeast gene YPL240C): 0.7
The level of expressed mRNA in the presence of chemical substance/The level of expressed mRNA in the absence of chemical substance (yeast gene YPL262W, cells incubated two hours with the chemical substance): 1.2
The level of expressed mRNA in the presence of chemical substance/The level of expressed mRNA in the absence of chemical substance (yeast gene YPL275W, cells incubated two hours with the chemical substance): 1.0
The level of expressed mRNA in the presence of chemical substance/The level of expressed mRNA in the absence of chemical substance (yeast gene YPL276W, cells incubated two hours with the chemical substance): 0.9
The level of expressed mRNA in the presence of chemical substance/The level of expressed mRNA in the absence of chemical substance (yeast gene YPR048W, cells incubated two hours with the chemical substance): 1.2
The level of expressed mRNA in the presence of chemical substance/The level of expressed mRNA in the absence of chemical substance (yeast gene YPR184W, cells incubated two hours with the chemical substance): 1.3
